Results from patent publication US5807742A, “Neurokinin receptor cell lines” (Merrell Pharmaceuticals Inc., priority 1996, dated 1998).
Starred links: 1 amine or outer side, 2 acyl side, 3 side chain; linkers in the order of their positions; H or OH if unused. Non-standard residues stand in square brackets, D forms with d. Residues, ends and D or L forms follow the SMILES beside them. NMeF = CN[C@@H](Cc1ccccc1)C(=O)O; Suc = O=C(CCC(=O)[*:2])[*:1]

Legend:
neurokinin A receptor [1] = biological target: T1, neurokinin A receptor (Bos taurus, UniProt P05363); experiment: [125I]NKA receptor binding (saturation/Scatchard and competition) in B82 cells transfected with pSKR56S cDNA (SKLKB82#n); parameters: species or system bovine; settings: SKLKB82#3 cells; FIG. 4
T1 construct: expressed in transfected cells
T1 sequence (P05363 1-384): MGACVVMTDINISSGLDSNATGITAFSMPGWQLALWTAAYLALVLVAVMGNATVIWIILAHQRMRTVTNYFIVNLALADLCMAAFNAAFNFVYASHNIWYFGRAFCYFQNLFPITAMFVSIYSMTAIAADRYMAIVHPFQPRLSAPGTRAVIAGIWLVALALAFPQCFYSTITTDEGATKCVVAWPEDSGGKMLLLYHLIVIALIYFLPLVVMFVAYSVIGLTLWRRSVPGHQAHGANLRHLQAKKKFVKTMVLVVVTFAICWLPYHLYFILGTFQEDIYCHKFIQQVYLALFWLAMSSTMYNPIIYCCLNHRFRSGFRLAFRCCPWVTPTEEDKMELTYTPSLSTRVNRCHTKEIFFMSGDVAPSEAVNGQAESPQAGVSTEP
Experimental: (§1) The homogenate is centrifuged at 48,000×g for 10 min at 4° C.

[2] = biological target: T2, NKA receptor (hamster urinary bladder) (Mesocricetus auratus, UniProt P51144); experiment: [125I]NKA receptor binding in hamster urinary bladder membranes (standard control); settings: FIG. 4
T2 construct: the hamster urinary bladder membranes were run as a standard control; from tissue; host or cells: hamster urinary bladder membranes
T2 sequence (P51144 1-384): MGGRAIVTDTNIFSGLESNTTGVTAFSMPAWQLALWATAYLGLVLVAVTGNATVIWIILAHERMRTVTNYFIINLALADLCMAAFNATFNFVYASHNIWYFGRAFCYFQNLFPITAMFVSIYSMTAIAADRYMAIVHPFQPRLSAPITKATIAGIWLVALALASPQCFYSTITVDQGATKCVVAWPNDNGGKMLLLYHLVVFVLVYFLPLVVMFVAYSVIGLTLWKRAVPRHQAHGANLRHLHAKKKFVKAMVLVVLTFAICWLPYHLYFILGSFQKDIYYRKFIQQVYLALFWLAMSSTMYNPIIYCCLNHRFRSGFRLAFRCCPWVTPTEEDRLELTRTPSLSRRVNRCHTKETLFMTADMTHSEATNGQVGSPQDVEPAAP
Experimental: as §1

neurokinin A receptor [3] = biological target: T1, neurokinin A receptor; experiment: [3H]inositol-1-phosphate (IP1) accumulation in SKLKB82#3 cells; assay type: cell-based, bovine
Experimental: The culture was incubated for 22-24 hours under the same conditions. After this incubation, the cells were washed once with 1.0 ml of IMDM for ten minutes and incubated for ten minutes in 0.2 ml of incubation buffer (IMDM with 10 mM LiCl, 40 ug/ml bacitracin, 4 ug/ml leupeptin, and 4 ug/ml chymostatin). […] The reaction was terminated in 60 minutes by aspiring the media and adding 0.5 ml methanol. The cells were scraped from the wells and placed into chloroform resistant tubes. A second aliquot of 0.5 ml methanol was used to collect the remaining cells. The cell suspensions were mixed with 1.0 ml chloroform and 0.5 ml double distilled water to obtain a two phase separation. After centrifugation at 4200g for 10 minutes, 0.9 ml aliquots of the upper phase were added to 2.0 ml of distilled water and mixed. This mixture was passed through poly prep columns (Bio-Rad Laboratories, Richmond, Calif.) which consisted of 2.0 ml slurry of ten percent anion exchange resin in formate form (AG1-X8, 100-200 mesh, Bio-Rad Laboratories, Richmond, Calif.). The columns were washed three times with 5.0 ml of distilled water and two times with 5.0 ml of 5 mM sodium tetraborate/60 mM sodium formate (Baker, Phillipsburg, N.J.). […] The eluate was mixed with nine ml of Aquamix (West Chem., San Diego, Calif.) and the radioactivity was counted.

CSCC[C@H](NC(=O)[C@H](CC(C)C)NC(=O)CNC(=O)[C@H](Cc1ccccc1)N(C)C(=O)[C@H](Cc1ccccc1)NC(=O)[C@H](CC(=O)O)NC(=O)CCC(=O)O)C(N)=O [senktide] (Suc-DF[NMeF]GLM-NH2)
potency rank-order, inhibition of [125I]NKA receptor binding (KI) (neurokinin A receptor [1]): followed by Nle^10 NKA (4-10), substance P, and senktide | potency rank-order, inhibition of [125I]NKA receptor binding (KI) [2]: followed by Nle^10 NKA (4-10), substance P, and senktide | EC50 (neurokinin A receptor [3]): ~1300 µM
